Values of other authors as cited in patent US6921530B1, “Low dose IL-2 for potentiation of immunity” (Cornell Research Foundation, Inc., priority 1999, dated 2005).
“And” between values parts separate entries of the source, which are not always exact repeats. Equal entries are not always repeated.

Test system: HCV
Conditions: cited from earlier work

For Interferon-α [IFN-α], the “sustained response, % of patients” value (3×10^6 units s.c. three times a week over one year, monotherapy) is listed as 35% and 28-43% and the “initial delay before decline of plasma HCV viral load” value (daily IFN therapy) is listed as 9 h.
